Consider ten compounds from ChEMBL document CHEMBL1909294, “Translating clinical findings into knowledge in drug safety evaluation--drug induced liver injury prediction system (DILIps)” (PLoS Comput Biol, 2011).

The subject of data set [1] is Hepatotoxicity.
Data set [2] has as its system Hepatotoxicity. The source holds these as a separate data set.
Data set [3] relates to Hepatotoxicity. The source holds these as a separate data set.
Data set [4] deals with Hepatotoxicity. The source holds these as a separate data set.
In data set [5] the test system is Hepatotoxicity. The source holds these as a separate data set.
The subject of data set [6] is Hepatotoxicity. This is another data set of the same source.
Data set [7] concerns Hepatotoxicity. This is another data set of the same source.
Data set [8] relates to Hepatotoxicity. This is another data set of the same source.
For data set [9], the system named is Hepatotoxicity. This is another data set of the same source.
Data set [10] relates to Hepatotoxicity. This is another data set of the same source.
The test system of data set [11] is Hepatotoxicity. This is another data set of the same source.
The subject of data set [12] is Hepatotoxicity. The source holds these as a separate data set.
Data set [13] deals with Hepatotoxicity. The source holds these as a separate data set.
Data set [14] concerns Hepatotoxicity. The source holds these as a separate data set.
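Wherever HepSE Combined Scores is given: combined hepatic side effect score as listed in the training data of the Drug Induced Liver Injury Prediction System (DILIps).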
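Wherever HepSE bilirubinemia is given: bilirubinemia hepatic side effect score drawn from the DILIps training data, a prediction system for drug-induced liver injury; call rule not given here.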
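Wherever HepSE cholecystitis is given: Cholecystitis-related hepatic side effect score drawn from the DILIps (drug-induced liver injury prediction) training data set; call rule not given here.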
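Wherever HepSE cholelithiasis is given: hepatic side effect score for cholelithiasis, drawn from the DILIps training data for predicting drug-induced liver injury; call rule not given here.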
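Wherever HepSE cirrhosis is given: cirrhosis hepatic side effect score taken from the DILIps (drug-induced liver injury prediction) training set; call rule not given here.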
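Wherever HepSE elevated liver function tests is given: hepatic side effect score for raised liver function tests, as recorded in the DILIps training set used for predicting drug-induced liver injury.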
Wherever HepSE hepatic failure is given: call rule not given here.
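Wherever HepSE hepatic necrosis is given: score of hepatic side effects for hepatic necrosis, drawn from the training data of DILIps, a prediction system for drug-induced liver injury; call rule not given here.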
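Wherever HepSE hepatitis is given: Hepatitis-related hepatic side effect score taken from the training data of DILIps, a prediction system for drug-induced liver injury; call rule not given here.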
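Wherever HepSE hepatomegaly is given: hepatic side effect score for hepatomegaly, taken from the training set of the DILIps drug-induced liver injury prediction system; call rule not given here.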
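Wherever HepSE jaundice is given: Jaundice-related hepatic side-effect score drawn from the training data of the DILIps (drug-induced liver injury prediction system); call rule not given here.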
Wherever HepSE liver disease is given: call rule not given here.
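Wherever HepSE liver fatty is given: hepatic side effect score for fatty liver, taken from the DILIps training set for predicting drug-induced liver injury; call rule not given here.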
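Wherever HepSE liver function tests abnormal is given: hepatic side effect score taken from the DILIps (drug-induced liver injury prediction system) training data, here covering abnormal liver function test findings.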

With GOLD SODIUM THIOMALATE, the “HepSE_liver function tests abnormal” value in the data set on Hepatotoxicity [1] was 0. Further, the HepSE_hepatic necrosis in the data set with Hepatotoxicity [2] stood at 0. The same compound came in with a HepSE_cirrhosis in the data set with Hepatotoxicity [3] of 0. The compound also yielded a HepSE_hepatic failure in the data set with Hepatotoxicity [4] of 1. In the data set on Hepatotoxicity [5], this compound had a HepSE_bilirubinemia of 0. The same compound displayed a HepSE_cholelithiasis in the data set with Hepatotoxicity [6] of 0. The HepSE_liver disease in the data set on Hepatotoxicity [7] is given as 0. The HepSE_cholecystitis in the data set with Hepatotoxicity [8] was 0. This compound yielded a HepSE_hepatomegaly with Hepatotoxicity [9] of 0. In addition, in the data set on Hepatotoxicity [10], the “HepSE_elevated liver function tests” value came out at 0. Also, the “HepSE_Combined Scores” value in the data set on Hepatotoxicity [11] came to 2. The HepSE_hepatitis with Hepatotoxicity [12] was found to be 0. Besides, in the data set with Hepatotoxicity [13], the HepSE_jaundice is on record as 1. The HepSE_liver fatty in the data set with Hepatotoxicity [14] is listed as 0.

`COCCCOc1cc(C[C@@H](C[C@H](N)[C@@H](O)C[C@H](C(=O)NCC(C)(C)C(N)=O)C(C)C)C(C)C)ccc1OC`: the “HepSE_liver function tests abnormal” value in the data set on Hepatotoxicity [1] was 0. This compound also showed a HepSE_hepatic necrosis in the data set with Hepatotoxicity [2] of 0. The compound also came in with a HepSE_cirrhosis in the data set with Hepatotoxicity [3] of 0. The compound further registered a HepSE_hepatic failure with Hepatotoxicity [4] of 0. Besides, the HepSE_bilirubinemia in the data set on Hepatotoxicity [5] is recorded as 0. The HepSE_cholelithiasis in the data set with Hepatotoxicity [6] is reported as 0. Moreover, the HepSE_liver disease in the data set with Hepatotoxicity [7] is 0. The HepSE_cholecystitis in the data set on Hepatotoxicity [8] worked out at 0. In the data set on Hepatotoxicity [9], this compound displayed a HepSE_hepatomegaly of 0. Besides, the “HepSE_elevated liver function tests” value in the data set with Hepatotoxicity [10] turned out to be 0. For the same compound, in the data set on Hepatotoxicity [11], the “HepSE_Combined Scores” value was 0. In addition, the HepSE_hepatitis with Hepatotoxicity [12] was 0. The compound also had a HepSE_jaundice with Hepatotoxicity [13] of 0. The compound also showed a HepSE_liver fatty with Hepatotoxicity [14] of 0.

For `CC(C)=CCN1CC[C@]2(C)c3cc(O)ccc3C[C@H]1[C@H]2C` [(+)-PENTAZOCINE], the “HepSE_liver function tests abnormal” value in the data set on Hepatotoxicity [1] is 0. In the data set on Hepatotoxicity [2], this compound showed a HepSE_hepatic necrosis of 0. The compound also came in with a HepSE_cirrhosis in the data set with Hepatotoxicity [3] of 0. Also, the HepSE_hepatic failure in the data set with Hepatotoxicity [4] was determined as 0. The HepSE_bilirubinemia in the data set with Hepatotoxicity [5] was 0. The same compound came in with a HepSE_cholelithiasis in the data set on Hepatotoxicity [6] of 0. Also, the HepSE_liver disease in the data set with Hepatotoxicity [7] was determined as 0. The HepSE_cholecystitis in the data set with Hepatotoxicity [8] is given as 0. The compound also came in with a HepSE_hepatomegaly in the data set with Hepatotoxicity [9] of 0. For the same compound, the “HepSE_elevated liver function tests” value in the data set on Hepatotoxicity [10] was 0. Besides, in the data set with Hepatotoxicity [11], the “HepSE_Combined Scores” value is 0. Also, in the data set with Hepatotoxicity [12], the HepSE_hepatitis is 0. Moreover, the HepSE_jaundice in the data set on Hepatotoxicity [13] came out at 0. Moreover, in the data set with Hepatotoxicity [14], the HepSE_liver fatty is 0.

Regarding `CC(=O)NCCCS(=O)(=O)O` [ACAMPROSATE], the “HepSE_liver function tests abnormal” value in the data set with Hepatotoxicity [1] was 1. The HepSE_hepatic necrosis in the data set with Hepatotoxicity [2] worked out at 0. The same compound gave a HepSE_cirrhosis in the data set on Hepatotoxicity [3] of 1. Further, in the data set with Hepatotoxicity [4], the HepSE_hepatic failure was 0. Moreover, in the data set on Hepatotoxicity [5], the HepSE_bilirubinemia came out at 1. The HepSE_cholelithiasis in the data set on Hepatotoxicity [6] is reported as 0. For the same compound, in the data set on Hepatotoxicity [7], the HepSE_liver disease was 0. The compound also registered a HepSE_cholecystitis with Hepatotoxicity [8] of 1. In addition, the HepSE_hepatomegaly in the data set on Hepatotoxicity [9] stood at 0. Besides, the “HepSE_elevated liver function tests” value in the data set with Hepatotoxicity [10] came out at 0. The “HepSE_Combined Scores” value in the data set on Hepatotoxicity [11] came to 5. Also, the HepSE_hepatitis in the data set with Hepatotoxicity [12] worked out at 1. For the same compound, in the data set with Hepatotoxicity [13], the HepSE_jaundice worked out at 0. Moreover, the HepSE_liver fatty in the data set with Hepatotoxicity [14] is listed as 0.

For the compound `Clc1cccc(Cl)c1N=C1NCCN1` [CLONIDINE], the “HepSE_liver function tests abnormal” value with Hepatotoxicity [1] (Liver) came out at 0. The same compound came in with a HepSE_hepatic necrosis in the data set on Hepatotoxicity [2] (Liver) of 0. Besides, in the data set on Hepatotoxicity [3] (Liver), the HepSE_cirrhosis is 0. The same compound showed a HepSE_hepatic failure with Hepatotoxicity [4] (Liver) of 0. Moreover, in the data set with Hepatotoxicity [5] (Liver), the HepSE_bilirubinemia is reported as 0. The compound also yielded a HepSE_cholelithiasis with Hepatotoxicity [6] (Liver) of 0. Besides, the HepSE_liver disease with Hepatotoxicity [7] (Liver) was 0. Further, the HepSE_cholecystitis in the data set on Hepatotoxicity [8] (Liver) is 0. The same compound gave a HepSE_hepatomegaly in the data set on Hepatotoxicity [9] (Liver) of 0. Besides, the “HepSE_elevated liver function tests” value in the data set with Hepatotoxicity [10] (Liver) is reported as 0. Moreover, in the data set on Hepatotoxicity [11] (Liver), the “HepSE_Combined Scores” value stood at 1. In the data set with Hepatotoxicity [12] (Liver), this compound yielded a HepSE_hepatitis of 1. The HepSE_jaundice with Hepatotoxicity [13] (Liver) is 0. Moreover, the HepSE_liver fatty in the data set on Hepatotoxicity [14] (Liver) is 0.

Turning to `O=C1C(CC[S+]([O-])c2ccccc2)C(=O)N(c2ccccc2)N1c1ccccc1` (stereo not given) [SULFINPYRAZONE], in the data set on Hepatotoxicity [1], the “HepSE_liver function tests abnormal” value stood at 0. The same compound showed a HepSE_hepatic necrosis with Hepatotoxicity [2] of 0. Further, the HepSE_cirrhosis in the data set with Hepatotoxicity [3] came to 0. Moreover, the HepSE_hepatic failure in the data set with Hepatotoxicity [4] came to 0. Further, the HepSE_bilirubinemia in the data set with Hepatotoxicity [5] is listed as 0. The HepSE_cholelithiasis with Hepatotoxicity [6] was determined as 0. For the same compound, in the data set on Hepatotoxicity [7], the HepSE_liver disease came to 0. In the data set with Hepatotoxicity [8], this compound gave a HepSE_cholecystitis of 0. This compound had a HepSE_hepatomegaly in the data set with Hepatotoxicity [9] of 0. Further, the “HepSE_elevated liver function tests” value in the data set on Hepatotoxicity [10] is 0. Besides, the “HepSE_Combined Scores” value in the data set with Hepatotoxicity [11] was 0. The HepSE_hepatitis in the data set on Hepatotoxicity [12] is given as 0. The HepSE_jaundice with Hepatotoxicity [13] stood at 0. Besides, the HepSE_liver fatty in the data set with Hepatotoxicity [14] was 0.

With `CC(COc1ccccc1)N(CCCl)Cc1ccccc1` (stereo not given) [PHENOXYBENZAMINE], the “HepSE_liver function tests abnormal” value with Hepatotoxicity [1] amounted to 0. This compound also had a HepSE_hepatic necrosis in the data set on Hepatotoxicity [2] of 0. In the data set with Hepatotoxicity [3], this compound came in with a HepSE_cirrhosis of 0. In the data set on Hepatotoxicity [4], this compound gave a HepSE_hepatic failure of 0. For the same compound, the HepSE_bilirubinemia in the data set with Hepatotoxicity [5] is on record as 0. This compound yielded a HepSE_cholelithiasis in the data set on Hepatotoxicity [6] of 0. In the data set on Hepatotoxicity [7], this compound yielded a HepSE_liver disease of 0. In the data set on Hepatotoxicity [8], this compound gave a HepSE_cholecystitis of 0. Also, the HepSE_hepatomegaly in the data set with Hepatotoxicity [9] is 0. The “HepSE_elevated liver function tests” value with Hepatotoxicity [10] was determined as 0. Also, in the data set with Hepatotoxicity [11], the “HepSE_Combined Scores” value is reported as 0. In the data set on Hepatotoxicity [12], the HepSE_hepatitis amounted to 0. This compound also came in with a HepSE_jaundice with Hepatotoxicity [13] of 0. Besides, in the data set on Hepatotoxicity [14], the HepSE_liver fatty is on record as 0.

As for `CC[C@@H](CO)NCCN[C@@H](CC)CO` [ETHAMBUTOL], the “HepSE_liver function tests abnormal” value with Hepatotoxicity [1] is 1. This compound also had a HepSE_hepatic necrosis in the data set with Hepatotoxicity [2] of 0. This compound gave a HepSE_cirrhosis in the data set with Hepatotoxicity [3] of 0. In the data set with Hepatotoxicity [4], this compound yielded a HepSE_hepatic failure of 0. Further, the HepSE_bilirubinemia in the data set with Hepatotoxicity [5] is on record as 0. Besides, the HepSE_cholelithiasis in the data set with Hepatotoxicity [6] came out at 0. Moreover, the HepSE_liver disease in the data set on Hepatotoxicity [7] is listed as 0. The HepSE_cholecystitis in the data set on Hepatotoxicity [8] came out at 0. This compound came in with a HepSE_hepatomegaly with Hepatotoxicity [9] of 0. For the same compound, in the data set on Hepatotoxicity [10], the “HepSE_elevated liver function tests” value amounted to 0. The “HepSE_Combined Scores” value with Hepatotoxicity [11] was 2. The same compound gave a HepSE_hepatitis in the data set on Hepatotoxicity [12] of 1. For the same compound, in the data set on Hepatotoxicity [13], the HepSE_jaundice was 0. This compound showed a HepSE_liver fatty in the data set on Hepatotoxicity [14] of 0.

In the case of `Cn1c(=O)c2[nH]cnc2n(C)c1=O.Cn1c(=O)c2[nH]cnc2n(C)c1=O.NCCN` [AMINOPHYLLINE], the “HepSE_liver function tests abnormal” value with Hepatotoxicity [1] amounted to 0. Further, in the data set with Hepatotoxicity [2], the HepSE_hepatic necrosis worked out at 0. In addition, the HepSE_cirrhosis with Hepatotoxicity [3] came out at 0. Besides, the HepSE_hepatic failure in the data set on Hepatotoxicity [4] turned out to be 0. This compound showed a HepSE_bilirubinemia in the data set with Hepatotoxicity [5] of 0. Also, in the data set on Hepatotoxicity [6], the HepSE_cholelithiasis was 0. The compound further returned a HepSE_liver disease with Hepatotoxicity [7] of 0. In the data set with Hepatotoxicity [8], the HepSE_cholecystitis is 0. In the data set on Hepatotoxicity [9], this compound registered a HepSE_hepatomegaly of 0. The “HepSE_elevated liver function tests” value in the data set on Hepatotoxicity [10] is reported as 0. The “HepSE_Combined Scores” value with Hepatotoxicity [11] worked out at 0. In the data set on Hepatotoxicity [12], this compound displayed a HepSE_hepatitis of 0. This compound also gave a HepSE_jaundice with Hepatotoxicity [13] of 0. Besides, the HepSE_liver fatty in the data set on Hepatotoxicity [14] amounted to 0.

Consider `CCN(CC)CCN1C(=O)CN=C(c2ccccc2F)c2cc(Cl)ccc21` [FLURAZEPAM], for which the “HepSE_liver function tests abnormal” value in the data set with Hepatotoxicity [1] came out at 0. The compound further yielded a HepSE_hepatic necrosis in the data set with Hepatotoxicity [2] of 0. The HepSE_cirrhosis in the data set with Hepatotoxicity [3] came out at 0. Further, the HepSE_hepatic failure in the data set on Hepatotoxicity [4] turned out to be 0. In the data set on Hepatotoxicity [5], this compound displayed a HepSE_bilirubinemia of 0. In addition, the HepSE_cholelithiasis with Hepatotoxicity [6] was found to be 0. The compound further gave a HepSE_liver disease in the data set on Hepatotoxicity [7] of 0. The compound also showed a HepSE_cholecystitis with Hepatotoxicity [8] of 0. The same compound registered a HepSE_hepatomegaly in the data set on Hepatotoxicity [9] of 0. Further, the “HepSE_elevated liver function tests” value in the data set with Hepatotoxicity [10] is listed as 0. In addition, the “HepSE_Combined Scores” value in the data set with Hepatotoxicity [11] worked out at 0. This compound gave a HepSE_hepatitis in the data set on Hepatotoxicity [12] of 0. In the data set on Hepatotoxicity [13], the HepSE_jaundice is 0. For the same compound, the HepSE_liver fatty with Hepatotoxicity [14] was 0.
